The kinase profiling compilation of Christmann-Franck et al. (2016)

How the values were obtained:
Test in all cases: radiometric filter-binding kinase assay
[1] = test system: PAK2 (human), Q13177 [T402E]
EPHA2 (human) = EPHA2 (human) (UniProt P29317)
MAPK13 (human) = MAPK13 (human) (UniProt O15264); details: compound 1.0 µM
TBK1 (human) = TBK1 (human) (UniProt Q9UHD2); details: compound 10.0 µM
NEK6 (human) = NEK6 (human) (UniProt Q9HC98)
MAPK11 (human) = MAPK11 (human) (UniProt Q15759)
NEK2 (human) = NEK2 (human) (UniProt P51955)
GSK3B (human) = GSK3B (human) (UniProt P49841)
ROCK2 (rat) = details: accession and sequence are those of the human protein
CSNK2A1 (human) = CSNK2A1 (human) (UniProt P68400)
PHKG1 (human) = PHKG1 (human) (UniProt Q16816)
[2] = test system: AKT2 (human), P31751 [S474D]
MAP3K9 (human) = MAP3K9 (human) (UniProt P80192)
MAP2K1 (human) = MAP2K1 (human) (UniProt Q02750)
PKN2 (human) = PKN2 (human) (UniProt Q16513)
SRPK1 (human) = SRPK1 (human) (UniProt Q96SB4)
[3] = test system: RPS6KB1 (human), P23443 [T412E]
DYRK3 (human) = DYRK3 (human) (UniProt O43781)
SYK (human) = SYK (human) (UniProt P43405); details: compound 10.0 µM
EPHB1 (human) = EPHB1 (human) (UniProt P54762)
MARK1 (human) = MARK1 (human) (UniProt Q9P0L2)
INSR (human) = INSR (human) (UniProt P06213)
MYLK (human) = MYLK (human) (UniProt Q15746)
LCK (mouse) = details: compound 10.0 µM; accession and sequence are those of the human protein
[4] = test system: AKT1 (human), P31749 [S473D]
MAPK10 (human) = MAPK10 (human) (UniProt P53779)
FGFR1 (human) = FGFR1 (human) (UniProt P11362)
INSRR (human) = INSRR (human) (UniProt P14616)
PIM3 (human) = PIM3 (human) (UniProt Q86V86)
[5] = target: STK11 CAB39 STRADA (human) (UniProt Q9Y376+Q7RTN6+Q15831)
MAP2K6 (human) = MAP2K6 (human) (UniProt P52564)
IRAK4 (human) = IRAK4 (human) (UniProt Q9NWZ3)
MKNK1 (human) = MKNK1 (human) (UniProt Q9BUB5)
TTK (human) = TTK (human) (UniProt P33981)
PIM2 (human) = PIM2 (human) (UniProt Q9P1W9)
MARK2 (human) = MARK2 (human) (UniProt Q7KZI7)

Sequence of PAK2 (human), Q13177 [T402E] (Q13177 whole entry T402E, looked up): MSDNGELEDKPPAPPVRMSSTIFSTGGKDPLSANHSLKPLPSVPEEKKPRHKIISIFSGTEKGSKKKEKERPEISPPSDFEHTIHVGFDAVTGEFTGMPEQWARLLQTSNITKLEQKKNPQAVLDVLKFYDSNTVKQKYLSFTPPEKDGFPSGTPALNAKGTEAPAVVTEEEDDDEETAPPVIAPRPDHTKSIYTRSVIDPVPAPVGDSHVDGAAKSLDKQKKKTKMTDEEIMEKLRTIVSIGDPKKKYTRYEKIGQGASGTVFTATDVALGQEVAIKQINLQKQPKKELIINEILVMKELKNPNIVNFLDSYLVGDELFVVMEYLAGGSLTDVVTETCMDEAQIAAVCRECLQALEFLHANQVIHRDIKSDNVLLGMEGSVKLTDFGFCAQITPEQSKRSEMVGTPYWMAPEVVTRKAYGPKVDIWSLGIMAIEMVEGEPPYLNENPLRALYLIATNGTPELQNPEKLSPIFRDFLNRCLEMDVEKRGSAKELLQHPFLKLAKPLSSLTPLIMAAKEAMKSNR
Sequence of AKT1 (human), P31749 [S473D] (P31749 whole entry S473D, looked up): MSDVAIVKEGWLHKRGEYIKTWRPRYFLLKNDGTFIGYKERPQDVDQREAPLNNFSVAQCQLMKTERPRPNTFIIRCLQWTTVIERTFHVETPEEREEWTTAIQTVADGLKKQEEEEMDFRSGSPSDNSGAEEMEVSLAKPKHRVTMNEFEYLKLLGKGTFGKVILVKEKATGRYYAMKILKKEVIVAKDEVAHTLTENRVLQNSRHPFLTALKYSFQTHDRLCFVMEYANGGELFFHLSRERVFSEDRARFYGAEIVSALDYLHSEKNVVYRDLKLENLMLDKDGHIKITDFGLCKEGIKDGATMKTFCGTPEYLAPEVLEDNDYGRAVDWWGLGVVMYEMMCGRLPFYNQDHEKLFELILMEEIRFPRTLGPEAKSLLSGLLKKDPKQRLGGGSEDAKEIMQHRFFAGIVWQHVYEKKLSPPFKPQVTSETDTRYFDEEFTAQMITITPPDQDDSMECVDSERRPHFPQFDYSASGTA
Sequence of PHKG1 (human) (Q16816 whole entry, looked up): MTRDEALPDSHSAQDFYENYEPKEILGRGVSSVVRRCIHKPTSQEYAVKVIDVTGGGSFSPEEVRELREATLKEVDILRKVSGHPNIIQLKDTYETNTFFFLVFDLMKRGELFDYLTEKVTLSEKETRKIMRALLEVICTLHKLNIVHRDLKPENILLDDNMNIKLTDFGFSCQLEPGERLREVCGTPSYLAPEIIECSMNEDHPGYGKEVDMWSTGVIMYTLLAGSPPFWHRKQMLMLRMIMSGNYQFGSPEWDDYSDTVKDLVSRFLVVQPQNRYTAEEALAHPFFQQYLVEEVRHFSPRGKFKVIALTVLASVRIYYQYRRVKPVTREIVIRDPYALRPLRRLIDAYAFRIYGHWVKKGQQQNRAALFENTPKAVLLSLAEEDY
Sequence of MAP2K6 (human) (P52564 whole entry, looked up): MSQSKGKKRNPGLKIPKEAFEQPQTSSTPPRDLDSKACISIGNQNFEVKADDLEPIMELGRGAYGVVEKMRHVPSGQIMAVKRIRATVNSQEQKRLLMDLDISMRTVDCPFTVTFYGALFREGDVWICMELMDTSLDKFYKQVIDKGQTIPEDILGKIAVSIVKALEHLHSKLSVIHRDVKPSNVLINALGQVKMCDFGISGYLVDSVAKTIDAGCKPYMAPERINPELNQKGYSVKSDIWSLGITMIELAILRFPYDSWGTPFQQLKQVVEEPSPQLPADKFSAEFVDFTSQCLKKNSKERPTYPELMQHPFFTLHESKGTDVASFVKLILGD
Sequence of RPS6KB1 (human), P23443 [T412E] (P23443 whole entry T412E, looked up): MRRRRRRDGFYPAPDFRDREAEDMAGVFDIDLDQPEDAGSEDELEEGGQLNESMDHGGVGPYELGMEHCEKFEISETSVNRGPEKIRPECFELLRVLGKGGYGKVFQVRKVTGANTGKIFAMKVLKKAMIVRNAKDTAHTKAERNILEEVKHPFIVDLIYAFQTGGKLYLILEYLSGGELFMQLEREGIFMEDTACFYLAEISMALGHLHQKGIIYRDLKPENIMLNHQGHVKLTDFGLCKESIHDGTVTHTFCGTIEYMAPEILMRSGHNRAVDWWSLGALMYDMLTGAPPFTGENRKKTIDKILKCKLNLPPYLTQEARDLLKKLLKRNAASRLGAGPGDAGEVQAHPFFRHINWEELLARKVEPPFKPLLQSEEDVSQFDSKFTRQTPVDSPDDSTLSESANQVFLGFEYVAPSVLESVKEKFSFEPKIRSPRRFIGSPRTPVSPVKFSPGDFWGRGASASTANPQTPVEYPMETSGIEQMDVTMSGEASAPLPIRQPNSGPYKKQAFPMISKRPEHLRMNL
Sequence of PIM2 (human) (Q9P1W9 whole entry, looked up): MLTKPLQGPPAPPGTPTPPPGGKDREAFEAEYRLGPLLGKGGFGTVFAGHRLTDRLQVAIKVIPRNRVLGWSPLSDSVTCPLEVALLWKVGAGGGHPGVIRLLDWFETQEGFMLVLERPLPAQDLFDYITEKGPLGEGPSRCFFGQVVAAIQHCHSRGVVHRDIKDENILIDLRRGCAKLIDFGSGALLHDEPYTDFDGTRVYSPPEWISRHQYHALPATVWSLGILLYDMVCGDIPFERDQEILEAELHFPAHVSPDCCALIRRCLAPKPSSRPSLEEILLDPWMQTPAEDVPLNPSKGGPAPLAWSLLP
Sequence of TTK (human) (P33981 whole entry, looked up): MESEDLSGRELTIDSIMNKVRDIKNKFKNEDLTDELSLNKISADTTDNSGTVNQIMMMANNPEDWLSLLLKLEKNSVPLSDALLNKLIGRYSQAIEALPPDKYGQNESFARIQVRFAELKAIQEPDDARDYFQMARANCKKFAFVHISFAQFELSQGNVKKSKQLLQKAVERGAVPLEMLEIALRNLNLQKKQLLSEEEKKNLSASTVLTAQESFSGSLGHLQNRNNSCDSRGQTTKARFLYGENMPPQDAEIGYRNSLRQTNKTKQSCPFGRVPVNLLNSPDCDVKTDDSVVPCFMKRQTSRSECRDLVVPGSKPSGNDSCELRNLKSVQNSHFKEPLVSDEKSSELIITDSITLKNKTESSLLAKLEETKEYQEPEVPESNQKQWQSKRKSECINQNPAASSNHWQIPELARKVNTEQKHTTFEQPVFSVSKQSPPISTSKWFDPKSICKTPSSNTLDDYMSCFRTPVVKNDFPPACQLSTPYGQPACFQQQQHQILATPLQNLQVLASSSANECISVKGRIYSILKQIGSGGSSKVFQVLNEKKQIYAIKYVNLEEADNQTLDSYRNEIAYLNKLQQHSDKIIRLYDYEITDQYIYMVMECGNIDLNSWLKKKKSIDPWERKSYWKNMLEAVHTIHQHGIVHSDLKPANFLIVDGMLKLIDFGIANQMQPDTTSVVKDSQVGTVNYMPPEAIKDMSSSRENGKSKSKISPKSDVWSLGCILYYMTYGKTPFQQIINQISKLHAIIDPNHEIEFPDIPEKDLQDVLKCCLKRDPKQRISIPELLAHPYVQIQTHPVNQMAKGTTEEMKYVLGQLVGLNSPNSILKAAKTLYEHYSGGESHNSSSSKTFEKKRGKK
Sequence of MAPK10 (human) (P53779 whole entry, looked up): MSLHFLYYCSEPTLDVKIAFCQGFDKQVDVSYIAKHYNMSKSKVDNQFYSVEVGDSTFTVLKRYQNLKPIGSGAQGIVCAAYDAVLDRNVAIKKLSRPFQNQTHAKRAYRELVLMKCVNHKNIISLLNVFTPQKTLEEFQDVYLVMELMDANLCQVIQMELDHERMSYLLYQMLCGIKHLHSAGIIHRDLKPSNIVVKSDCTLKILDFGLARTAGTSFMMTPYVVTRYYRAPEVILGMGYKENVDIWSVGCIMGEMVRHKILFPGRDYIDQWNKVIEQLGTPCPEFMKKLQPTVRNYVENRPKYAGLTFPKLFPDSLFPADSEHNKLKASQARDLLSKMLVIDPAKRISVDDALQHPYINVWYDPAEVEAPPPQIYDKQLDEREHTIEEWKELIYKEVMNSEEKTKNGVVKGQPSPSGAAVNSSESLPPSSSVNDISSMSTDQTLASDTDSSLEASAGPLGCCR
Sequence of IRAK4 (human) (Q9NWZ3 whole entry, looked up): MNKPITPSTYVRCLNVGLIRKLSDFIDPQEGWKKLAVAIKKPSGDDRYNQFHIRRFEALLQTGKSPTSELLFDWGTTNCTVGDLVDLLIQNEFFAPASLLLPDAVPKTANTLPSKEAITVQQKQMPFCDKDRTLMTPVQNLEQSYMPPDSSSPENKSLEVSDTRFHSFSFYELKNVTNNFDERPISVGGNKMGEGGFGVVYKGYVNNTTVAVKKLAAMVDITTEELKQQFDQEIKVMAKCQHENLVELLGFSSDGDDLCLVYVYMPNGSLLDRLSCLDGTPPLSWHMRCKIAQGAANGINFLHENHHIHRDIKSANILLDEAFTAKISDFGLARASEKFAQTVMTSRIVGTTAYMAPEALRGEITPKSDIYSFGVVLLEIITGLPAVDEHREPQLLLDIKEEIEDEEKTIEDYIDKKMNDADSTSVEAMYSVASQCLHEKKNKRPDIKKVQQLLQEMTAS

COc1cc(C(=O)N2CCOCC2)c(F)cc1Nc1ncc(C(F)(F)F)c(NC2CC2)n1
residual activity ([1]; compound 1.0 µM): 89% | residual activity ([1]; compound 10.0 µM): 88% | residual activity (EPHA2 (human); compound 1.0 µM): 81% | residual activity (EPHA2 (human); compound 10.0 µM): 93% | residual activity (MAPK13 (human)): 97% | residual activity (TBK1 (human)): 26% | residual activity (NEK6 (human); compound 1.0 µM): 112% | residual activity (NEK6 (human); compound 10.0 µM): 90% | residual activity (MAPK11 (human); compound 1.0 µM): 98% | residual activity (MAPK11 (human); compound 10.0 µM): 101% | residual activity (NEK2 (human); compound 1.0 µM): 97% | residual activity (NEK2 (human); compound 10.0 µM): 72% | residual activity (GSK3B (human); compound 1.0 µM): 73% | residual activity (GSK3B (human); compound 10.0 µM): 43% | residual activity (ROCK2 (rat); compound 1.0 µM): 95% | residual activity (ROCK2 (rat); compound 10.0 µM): 78% | residual activity (CSNK2A1 (human); compound 1.0 µM): 96% | residual activity (CSNK2A1 (human); compound 10.0 µM): 74% | residual activity (PHKG1 (human); compound 1.0 µM): 45% | residual activity (PHKG1 (human); compound 10.0 µM): 8% | residual activity ([2]; compound 1.0 µM): 99% | residual activity ([2]; compound 10.0 µM): 98% | residual activity (MAP3K9 (human); compound 1.0 µM): 39% | residual activity (MAP3K9 (human); compound 10.0 µM): 7% | residual activity (MAP2K1 (human); compound 1.0 µM): 95% | residual activity (MAP2K1 (human); compound 10.0 µM): 81% | residual activity (PKN2 (human); compound 1.0 µM): 84% | residual activity (PKN2 (human); compound 10.0 µM): 82% | residual activity (SRPK1 (human); compound 1.0 µM): 84% | residual activity (SRPK1 (human); compound 10.0 µM): 69% | residual activity ([3]; compound 1.0 µM): 89% | residual activity ([3]; compound 10.0 µM): 68% | residual activity (DYRK3 (human); compound 1.0 µM): 88% | residual activity (DYRK3 (human); compound 10.0 µM): 51% | residual activity (SYK (human)): 44% | residual activity (EPHB1 (human); compound 1.0 µM): 93% | residual activity (EPHB1 (human); compound 10.0 µM): 91% | residual activity (MARK1 (human); compound 1.0 µM): 88% | residual activity (MARK1 (human); compound 10.0 µM): 85% | residual activity (INSR (human); compound 1.0 µM): 50% | residual activity (INSR (human); compound 10.0 µM): 3% | residual activity (MYLK (human); compound 1.0 µM): 44% | residual activity (MYLK (human); compound 10.0 µM): 8% | residual activity (LCK (mouse)): 102% | residual activity ([4]; compound 1.0 µM): 93% | residual activity ([4]; compound 10.0 µM): 97% | residual activity (MAPK10 (human); compound 1.0 µM): 80% | residual activity (MAPK10 (human); compound 10.0 µM): 48% | residual activity (FGFR1 (human); compound 1.0 µM): 97% | residual activity (FGFR1 (human); compound 10.0 µM): 104% | residual activity (INSRR (human); compound 1.0 µM): 84% | residual activity (INSRR (human); compound 10.0 µM): 67% | residual activity (PIM3 (human); compound 1.0 µM): 101% | residual activity (PIM3 (human); compound 10.0 µM): 78% | residual activity ([5]; compound 1.0 µM): 88% | residual activity ([5]; compound 10.0 µM): 92% | residual activity (MAP2K6 (human); compound 1.0 µM): 71% | residual activity (MAP2K6 (human); compound 10.0 µM): 31% | residual activity (IRAK4 (human); compound 1.0 µM): 90% | residual activity (IRAK4 (human); compound 10.0 µM): 93% | residual activity (MKNK1 (human); compound 1.0 µM): 74% | residual activity (MKNK1 (human); compound 10.0 µM): 26% | residual activity (TTK (human); compound 1.0 µM): 56% | residual activity (TTK (human); compound 10.0 µM): 31% | residual activity (PIM2 (human); compound 1.0 µM): 100% | residual activity (PIM2 (human); compound 10.0 µM): 107% | residual activity (MARK2 (human); compound 1.0 µM): 100% | residual activity (MARK2 (human); compound 10.0 µM): 81%
